# From patent publication US11612583B2, “Disease modifying methods for treating neurodegenerative diseases using nootropic agents” (priority 2018, dated 2023)
# “Also recorded” adds a separate entry of the source.
# Legend:
# PINK1-KO rats [1] = assay: Hind limb grip strength in PINK1-KO rats; type: in vivo, rat; conditions: intraperitoneal Forskolin 1.6 mg/kg with or without Noopept 0.05 μg/kg; 10 days; post vs pre-treatment; FIG. 11
# Method: (§1) All experiments involving mice and rats were performed in accord with ARRIVE (Animal Research: Reporting of In Vivo Experiments) guidelines. Wild-type C57BL/6 and PINK1 knockout mice (B6.129S4-Pink1^tm1Slm/J), wild-type (Long Evans rats) and PINK1 knockout (LEH-PINK1^tm1sage.Park6) rats (SAGE labs through Horizon Discovery) were handled humanely and appropriately per the ARRIVE guidelines. All mice were housed at the Laboratory of Animal Resources (University of Nevada, Reno) in cages containing sufficient bedding, food (pellets), water, with sufficient social, nutritional and “enriched” environments, and maintained in HVAC-pressurized/sterile environment and in 12:12 hr light/dark cycles.
# (§2) Wild-type (PINK1+/+) or PINK1 knockout (PINK1−/−) rats were treated with intraperitoneal injections of DMSO control or of Forskolin (1.6 mg/kg body weight) once every 2 days for two doses followed by co-administration with Noopept (0.05 μg/kg) for three more doses (once every two days) for up to a total treatment time of 10 days. […] In addition, muscle coordination and balance were assessed by subjecting the rats to cross a 1-meter, tapered beam balance (2 cm width) for up to three trials per animal. […]
# [2] = tested on: primary cortical neurons treated with rotenone; assay: Image-based analysis of mitochondrial content in dendrites (MAP2B/TOM20 immunostaining); type: cell-based, mouse; conditions: after rotenone 65 nM; Forskolin/NKH477 6.5 μM-8.5 μM or 250 μM dbt-cAMP; FIG. 4
# Text: The rotenone-treated neurons were also studied by image-based analyses of mitochondrial content in dendrites from primary cortical neurons immunostained for dendrites (MAP2B) and for mitochondria (TOM20).
# PINK1 knockout mice = assay: Dendrite length and mitochondrial content of substantia nigra dopamine neurons in PINK1 knockout mice; type: in vivo, mouse; conditions: intraperitoneal 1 mg/kg once every 2 days up to one week, vs untreated PINK1 knockout mice
# Method: as §1
# Wild-type (PINK1+/+) or PINK1 knockout (PINK1−/−) mice were treated with intraperitoneal injections of DMSO control or Forskolin (1 mg/kg body weight) once every 2 days for up to one week. At the end of each treatment, mice were sacrificed, and intracardially perfused with saline followed by 4% formaldehyde. Midbrain slices from wild-type and PINK1 KO mice were immunostained for mitochondria (TOM20) and tyrosine hydroxylase (TH, purple) to identify midbrain dopamine neurons and dendrite length.
# Protein Kinase A (PKA) = assay: PKA activity in cortex lysates after intranasal administration (ELISA-based colorimetric kit); type: in vivo, wild-type Long Evans Hooded rats; conditions: for blood brain barrier crossing: intranasal formulation, inferred from increased cortical PKA activity within 24 hrs; for PKA activity in the cortex: intranasal, 6 μl per nostril, 24 hr, 2.5 and 10 μM in cerebrospinal fluid, vs 0 μM, FIG. 14
# Method: PKA activity was measured in cortex of wild-type Long Evans Hooded rats by determining the level of PKA-mediated substrate phosphorylation by using an ELISA-based colorimetric PKA activity kit per manufacturer's recommendations (Enzo Life Sciences; ADI-EKS-390A) with the following minor modifications. To determine PKA-specific activity, lysates form the cortex were treated with H89, a pharmacological inhibitor of PKA at 10 μM for 5 min, and the H89-resistant kinase activity was subtracted from total kinase activity of untreated tissue lysates.
# Combine 1.68 grams K2HPO4 ([…]), 5.28 grams KH2PO4 ([…]), and 81.8 grams NaCl ([…]). Add distilled H2O up to 1 L total volume. Autoclave and sterilize solution. Adjust the pH of the solution to 7.4 using a pH meter. Add 1 gram sodium benzoate (0.1%) or propyl benzoic acid. Reconstitute up to 2 mg of lyophilized, sterile, pharmaceutical grade water-soluble Forskolin analogue, for example water soluble analogue NKH477, in 1 mL of PBS by using a 1 mL syringe. Transfer the reconstituted Forskolin onto the receiving chamber of an intranasal atomizer (NAD nasal) prior to intranasal delivery.
# (*:p<0.05 vs. 0 μM, One-Way ANOVA, Tukey's test, N=3 rats per group).
# PINK1-KO rats [3] = assay: Tapered beam balance test (coordination and balance) in PINK1-KO rats; type: in vivo, rat; conditions: intraperitoneal Forskolin 1.6 mg/kg with or without Noopept 0.05 μg/kg; 10 days; post vs pre-treatment; FIG. 10
# Method: as §1, §2
structure (smiles),measurement,setting,value
C=C[C@@]1(C)CC(=O)[C@]2(O)[C@@]3(C)[C@@H](O)CCC(C)(C)[C@@H]3[C@H](O)[C@H](OC(C)=O)[C@@]2(C)O1 [Forskolin],hind limb muscle strength,PINK1-KO rats [1],can reverse the loss of hind limb strength; also recorded: can reverse the loss of muscle strength
same,mitochondrial content in dendrites (% of dendrites occupied by mitochondria),[2],reversed the loss of mitochondria within dendrites; also recorded: completely blocked; also recorded: significantly restored
same,dendrite length of substantia nigra dopamine neurons,PINK1 knockout mice; FIG. 6A,significantly increased; also recorded: reverses the loss of dendrites
same,mitochondrial content in dendrites of substantia nigra dopamine neurons,PINK1 knockout mice; FIG. 6B,significantly increased; also recorded: reverses the loss of dendrites and mitochondria in dendrites
same,blood brain barrier crossing,Protein Kinase A (PKA),can efficiently cross the blood brain barrier; also recorded: efficiently crosses the blood brain barrier
same,blood brain barrier crossing,Protein Kinase A (PKA); listed as forskolin,crosses the blood brain barrier efficiently
same,PKA activity in the cortex,Protein Kinase A (PKA),significantly increases PKA activity
same,PKA activity in the cortex,Protein Kinase A (PKA); listed as forskolin,enhances neuroprotective PKA activity
same,"coordination and balance (motor score, falls and slips per crossing)",PINK1-KO rats [3],can reverse the loss of coordination and balance; also recorded: can reverse the loss of balance and coordination
